Each block holds one compound with its values, some of them ahead of it.
Key:
[1] = Titration of ACC HCl salt solutions; assay type: physicochemical
Procedure: When ACC HCl salt was added to water to a concentration of 10% w/w ACC the pH was determined to be 1.0±0.3. The solution was then titrated with each of sodium hydroxide, N,N dimethyl ethanolamine, triethanolamine, choline hydroxide, ammonium hydroxide dimethyl amine, and triethyl tetramine to achieve more basic solutions.
Thus, ACC HCl salt solutions are inherently unstable at a pH range of 2.75 to 8.5.

[2] = Non-aqueous solvent screening (solubility of ACC HCl); assay type: physicochemical; conditions: about 21° C.
Procedure: ACC HCl salt was added at 1-gram increments to 1 liter of each of the solvents in Table 1 at about 21° C. while stirring until the salt would no longer solubilize.

[3] = Chemical stability of ACC HCl in select non-aqueous solvents, 54 C, 3 weeks; assay type: physicochemical; conditions: for ACC HCl 3 weeks / ACC HCl % loss: 54 C, 3 weeks; for ACC HCl Initial: time 0
Procedure: Formulations were prepared with 14% w/w initial concentration of ACC HCl and […] Tween® 20 in each of the following solvents: 1,3 propanediol; ethylene glycol; diethylene glycol; dimethyl lactamide; and N-methyl pyrrolidone. Each formulation was then stored at 54 C for 3 weeks, which is the equivalent of storage for 3 years at room temperature. ACC HCl salt concentration was measured at time 0 and at 3 weeks.

[4] = Chemical stability of ACC HCl in select non-aqueous solvents, 5 or 54 C, 2 weeks; assay type: physicochemical; conditions: for % loss / ACC HCl 5 C., 2 weeks / ACC HCl 54 C., 2 weeks: 2 weeks; for ACC HCl Initial: time 0
Procedure: Formulations were prepared with 14% w/w initial concentration of ACC HCl and 2.5% w/w Tween® 20 in each of the following solvents: polyethylene glycol and propylene glycol. Each formulation was then stored at 5 or 54 C for 2 weeks, which is the equivalent of storage for 2 years at room temperature. ACC HCl salt concentration was measured at time 0 and at 2 weeks.

[5] = Stable non-aqueous ACC HCl salt formulation (solubility, stability at 5° C.); assay type: physicochemical; conditions: 13.6% ACC HCl salt, 84.4% propylene glycol, 2% Tween 20
Procedure: A formulation was prepared containing 13.6% ACC HCl salt, 84.4% propylene glycol and 2% Tween® 20.
Further, non-aqueous formulations of the present invention remained stable when placed at 5° C. Thus, specific non-aqueous formulations can stabilize ACC HCl salt.

[6] = system: cotton cotyledons; test: Cotton cotyledon bioefficacy assay: effect of solution pH and ACC form on ethylene production; conditions: for Ethylene Production: 250 ppm, 48 hours after spray
[7] = system: Gala apple; test: Apple fruitlet thinning assay; assay type: in vivo
Procedure: Formulations 1-3 were diluted with water to 408 ppm ACC HCl salt (i.e. molar equivalent to 300 ppm ACC free acid) and applied to Gala apple fruit when mean fruit diameter was 20 mm along with ACC free acid at 300 ppm. The apple plants were allowed to reach fruit set and set fruits were counted and compared to an untreated control. Fruit set was calculated as the number of fruits which set on a sample of 100 flower clusters.

[8] = Surfactant screening for stable ACC HCl salt solutions (titration with potassium hydroxide); assay type: physicochemical; conditions: addition at about 0.5% w/w
Procedure: The solution was then titrated with potassium hydroxide to achieve a more basic solution. Due to the exothermic nature of the titration process, titration occurred in a water bath maintained at a temperature of 20° C.±5° C.

[9] = Diethylene glycol with Tween 20
[10] = Dimethyl lactamide with Tween 20
[11] = N-methyl pyrrolidone with Tween 20
[12] = Polyethylene glycol with 2.5% w/w Tween 20, 5 C
[13] = Polyethylene glycol with 2.5% w/w Tween 20, 54 C
[14] = Propylene glycol with 2.5% w/w Tween 20, 5 C
[15] = Propylene glycol with 2.5% w/w Tween 20, 54 C

SMILES: Cl.NC1(C(=O)O)CC1 [ACC HCl, 1-amino-1-cyclopropanecarboxylic acid hydrochloride salt]
pH of solution ([1]; ACC HCl salt added to water to 10% w/w ACC): 1.0±0.3
pH at which all precipitates dissolve into solution ([1]; further titration with base): above 9.0
Measured Solubility of ACC HCl ([2]; 1,3-propane diol): 25 % w/w
Measured Solubility of ACC HCl ([2]; Diethylene glycol monomethyl ether): 14 % w/w
Measured Solubility of ACC HCl ([2]; Diethylene glycol): 25 % w/w
Measured Solubility of ACC HCl ([2]; Dimethyl lactamide): 20 % w/w
Measured Solubility of ACC HCl ([2]; Dipropylene glycol): 8 % w/w
Measured Solubility of ACC HCl ([2]; Ethyl lactate): 14 % w/w
Measured Solubility of ACC HCl ([2]; Ethylene glycol): 34 % w/w
Measured Solubility of ACC HCl ([2]; Fatty alcohol ethoxylate): 14 % w/w
Measured Solubility of ACC HCl ([2]; Glycerin): 14 % w/w
Measured Solubility of ACC HCl ([2]; Monoacetin): 14 % w/w
Measured Solubility of ACC HCl ([2]; N-methyl-2-pyrrolidinone): 20 % w/w
Measured Solubility of ACC HCl ([2]; Polyethylene glycol 200): 21 % w/w
Measured Solubility of ACC HCl ([2]; Polyethylene glycol 400): 14 % w/w
Measured Solubility of ACC HCl ([2]; Polyethylene glycol 600): 14 % w/w
Measured Solubility of ACC HCl ([2]; Polypropylene glycol): 14 % w/w
Measured Solubility of ACC HCl ([2]; Propylene carbonate): <2 % w/w
Measured Solubility of ACC HCl ([2]; Propylene glycol): 27 % w/w
Measured Solubility of ACC HCl ([2]; The ester of 2-ethyl hexanol and natural lactic acid): 14 % w/w
ACC HCl 3 weeks ([3]; 1,3 propanediol with Tween 20): 13.9 % w/w
ACC HCl % loss ([3]; 1,3 propanediol with Tween 20): 1.7 % loss
ACC HCl Initial ([3]; 1,3 propanediol with Tween 20): 14.14 % w/w
ACC HCl 3 weeks [3, 9]: 13.8 % w/w
ACC HCl % loss [3, 9]: 1.4 % loss
ACC HCl Initial [3, 9]: ~14% w/w
ACC HCl 3 weeks [3, 10]: 13.5 % w/w
ACC HCl % loss [3, 10]: 2.9 % loss
ACC HCl Initial [3, 10]: 13.9 % w/w
ACC HCl 3 weeks ([3]; Ethylene glycol with Tween 20): 13.6 % w/w
ACC HCl % loss ([3]; Ethylene glycol with Tween 20): 2.9 % loss
ACC HCl Initial ([3]; Ethylene glycol with Tween 20): 14.0 % w/w
ACC HCl 3 weeks [3, 11]: 13.9 % w/w
ACC HCl % loss [3, 11]: 0.7 % loss
ACC HCl Initial [3, 11]: 14.0 % w/w
% loss [4, 12]: −0.3%
ACC HCl 5 C., 2 weeks [4, 12]: 14.20 % w/w
% loss [4, 13]: 2.5%
ACC HCl 54 C., 2 weeks [4, 13]: 13.81 % w/w
ACC HCl Initial ([4]; Polyethylene glycol with 2.5% w/w Tween 20): 14.16 % w/w
% loss [4, 14]: 0%
ACC HCl 5 C., 2 weeks [4, 14]: 14.10 % w/w
% loss [4, 15]: 6.7%
ACC HCl 54 C., 2 weeks [4, 15]: 13.15 % w/w
ACC HCl Initial ([4]; Propylene glycol with 2.5% w/w Tween 20): 14.10 % w/w
solubility in non-aqueous solvents [5]: soluble
Ethylene Production ([6]; solution pH 2.5): 26.9 nL/g FW/hr
Ethylene Production ([6]; solution pH 5.0): 16.5 nL/g FW/hr
more ethylene generated at pH 2.5 than at pH 5.0 ([6]; same solution, pH 2.5 vs pH 5.0): 65%

SMILES: NC1(C(=O)O)CC1 [ACC free acid, 1-amino-1-cyclopropanecarboxylic acid]
Fruit set ([7]; 408 ppm ACC HCl salt (formulations) or 300 ppm ACC free acid, mean fruit diameter 20 mm): 70 fruit/100 flower clusters
reduction of fruit set ([7]; compared to untreated control): 20%
Ethylene Production ([6]; solution pH 2.5): 31.1 nL/g FW/hr
Ethylene Production ([6]; solution pH 5.0): 13.4 nL/g FW/hr

solution stability of ACC HCl salt solution [8]: further enhanced solution stability
SMILES: O=C(O)CN(CCN(CC(=O)O)CC(=O)O)CC(=O)O [EDTA, ethylenediaminetetraacetic acid]
